One test concerns the target recombinant human PIM1 (Homo sapiens (Human), UniProt P11309). Description: PIM-1 kinase activity in cell-free in vitro assay. Particulars: for inhibition at 0.5 µM: read-out: PIM-1: % inh 500 nM. The class given is biochemical.
In test [1] the test system is HCT-116 human colorectal carcinoma cells. Description: Cell-proliferation assay using Alamar Blue dye.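 Also: cells exposed to compound for about 4 days, then Alamar Blue added and dye fluorescence read after about 4 h, compared with medium-only control wells.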 Format: cell-based. On the technique in general: Resazurin is reduced to fluorescent resorufin, in cell work by metabolically active cells.
The mark [2] stands for this setting: Homo sapiens, HCT-116, read-out: HCT-116 (uM), cell proliferation modulatory activity, HCT-116, first column.
The mark [3] stands for this setting: Homo sapiens, HCT-116, HCT-116, first column, read-out: HCT-116 (uM), cell proliferation modulatory activity.
The mark [4] stands for this setting: Homo sapiens, HCT-116, read-out: HCT-116 (uM), cell proliferation modulatory activity, HCT-116, second column.
[5] abbreviates: Homo sapiens, HCT-116, HCT-116, second column, read-out: HCT-116 (uM), cell proliferation modulatory activity.
Where [6] appears, read: 500 nM compound, cell-free assay.
The mark [7] stands for this setting: Homo sapiens, HCT-116, HCT-116, second HCT-116 column (c8), read-out: HCT-116 (uM), cell proliferation modulatory activity.
[8] abbreviates: Homo sapiens, HCT-116, read-out: HCT-116 (uM), cell proliferation modulatory activity, HCT-116, second HCT-116 column (c8).

Structures are written as SMILES. Where two headings read alike, the source gives them in different places. Where only a bound is given, the exact number is not on record here.

recombinant human PIM1, sequence (P11309 whole entry): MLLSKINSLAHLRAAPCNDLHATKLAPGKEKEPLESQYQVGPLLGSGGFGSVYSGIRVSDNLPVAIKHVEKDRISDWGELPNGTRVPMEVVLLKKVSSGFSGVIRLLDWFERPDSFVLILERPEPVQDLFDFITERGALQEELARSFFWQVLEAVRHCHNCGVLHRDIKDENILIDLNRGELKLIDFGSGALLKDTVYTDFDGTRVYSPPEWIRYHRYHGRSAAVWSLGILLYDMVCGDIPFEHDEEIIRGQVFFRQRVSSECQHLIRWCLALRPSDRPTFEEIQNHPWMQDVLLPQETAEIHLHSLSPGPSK

In the case of `COc1cccc(Nc2nc3cc(C(=O)O)ccc3c3sccc23)c1`, at recombinant human PIM1 (500 nM compound, cell-free), the inhibition at 0.5 µM was found to be 23.4%. The IC50 in test [1] (setting [2]) came to 10 µM.
`O=C(NCCCO)c1ccc2c(c1)nc(NCCCO)c1ccsc12`: the inhibition at 0.5 µM at recombinant human PIM1 (500 nM compound, cell-free) was -24.7%. Also, the IC50 in test [1] (setting [3]) is 10 µM.
As for `Cc1cccc(Nc2nc3cc(C(=O)O)ccc3c3sccc23)c1`, the inhibition at 0.5 µM at recombinant human PIM1 (500 nM compound, cell-free) was found to be 59.1%. In addition, the values for the IC50 (at recombinant human PIM1 (cell-free); in test [1] (setting [4])) were 0.53 µM and more than 10 µM, respectively.
Take `O=C(O)CNc1nc2cc(C(=O)O)ccc2c2sccc12`: the inhibition at 0.5 µM at recombinant human PIM1 (500 nM compound, cell-free) was -26.1%. Moreover, in test [1] (setting [3]), the IC50 was found to be 10 µM.
For the compound `N#Cc1ccc2c(c1)nc(Cl)c1ccsc12` [drawing 1398], the inhibition at 0.5 µM on recombinant human PIM1 (500 nM compound, cell-free) was -20.2%. Further, in test [1] (setting [3]), the IC50 turned out to be 10 µM.
In the case of `N#Cc1ccc2c(c1)nc(Nc1ccccc1)c1ccncc12`, the inhibition at 0.5 µM on recombinant human PIM1 (500 nM compound, cell-free) amounted to 2.12%. Moreover, in test [1] (setting [5]), the IC50 turned out to be 6.9 µM.
As for `O=C(O)c1ccc2c(c1)nc(Nc1cc(F)ccc1F)c1ccsc12`, the inhibition at 0.5 µM on recombinant human PIM1 (500 nM compound, cell-free) was 67.1%. The IC50 was 0.308 µM on recombinant human PIM1 (cell-free) and more than 10 µM in test [1] (setting [4]).
With `CN(C)C(=O)c1cccc(Nc2nc3cc(-c4nnn[nH]4)ccc3c3sccc23)c1`, on recombinant human PIM1 (500 nM compound, cell-free), the inhibition at 0.5 µM is 49.1%. Besides, the IC50 in test [1] (setting [4]) was more than 10 µM.
`O=C(O)c1ccc2c(c1)nc(Nc1cccc(Br)c1)c1ccsc12`: the inhibition at 0.5 µM on recombinant human PIM1 (500 nM compound, cell-free) was 57.9%. Moreover, the IC50 on recombinant human PIM1 (cell-free) is 0.553 µM; in test [1] (setting [4]) it was more than 10 µM.
Take `O=C(O)c1ccc2c(c1)nc(Nc1cccc(Cl)c1F)c1ccsc12`: the inhibition at 0.5 µM on recombinant human PIM1 (500 nM compound, cell-free) worked out at 27.6%. Further, the IC50 in test [1] (setting [4]) is more than 10 µM.
For `O=C(O)c1ccc2c(c1)nc(Nc1cc(-c3ccccc3)[nH]n1)c1ccncc12`, the inhibition at 0.5 µM at recombinant human PIM1 (setting [6]) came to 56%. Besides, the IC50 is more than 1.1 µM on recombinant human PIM1 (cell-free assay) and more than 10 µM in test [1] (Homo sapiens, HCT-116, second HCT-116 column (c8), read-out: HCT-116 (uM) cell proliferation modulatory activity).
For the compound `FC(F)(F)Oc1ccc(Nc2nc3cc(-c4nnn[nH]4)ccc3c3sccc23)cc1`, on recombinant human PIM1 (500 nM compound, cell-free), the inhibition at 0.5 µM came to 32.5%. Also, in test [1] (setting [5]), the IC50 was more than 10 µM.
In the case of `COC(=O)c1ccc2c(c1)nc(Cl)c1ccsc12` [drawing 1375], on recombinant human PIM1 (500 nM compound, cell-free), the inhibition at 0.5 µM was -30%. The IC50 in test [1] (setting [3]) is 10 µM.
As for `c1ccc(COc2ccc(Nc3nc4cc(-c5nnn[nH]5)ccc4c4sccc34)cc2)cc1`, at recombinant human PIM1 (500 nM compound, cell-free), the inhibition at 0.5 µM turned out to be 9.03%. Besides, the IC50 in test [1] (setting [5]) came to 15 µM.
In the case of `Cn1nc(-c2ccccc2)cc1Nc1nc2cc(C(=O)O)ccc2c2cnccc12`, the inhibition at 0.5 µM at recombinant human PIM1 (setting [6]) was determined as 58.3%. Also, the IC50 is 0.914 µM on recombinant human PIM1 (cell-free assay) and more than 10 µM in test [1] (setting [7]).
For `CCOc1ncc2c(n1)c(NC1CC1)nc1cc(C(=O)O)ccc12` [drawing 1615], the inhibition at 0.5 µM on recombinant human PIM1 (setting [6]) is 11.1%. The IC50 in test [1] (setting [8]) was more than 10 µM.
Turning to `FC(F)(F)c1cc(Nc2nc3cc(-c4nnn[nH]4)ccc3c3sccc23)ccc1Cl`, the inhibition at 0.5 µM at recombinant human PIM1 (500 nM compound, cell-free) is -46.4%. Moreover, the IC50 in test [1] (setting [5]) was more than 10 µM.
`COC(=O)c1ccc2c(c1)nc(Nc1ccccc1)c1ccsc12`: on recombinant human PIM1 (500 nM compound, cell-free), the inhibition at 0.5 µM was found to be 2.59%. For the same compound, in test [1] (setting [3]), the IC50 turned out to be 10 µM.
Consider `O=C(O)c1ccc2c(c1)nc(NCCN1CCOCC1)c1ccsc12`, for which the inhibition at 0.5 µM at recombinant human PIM1 (500 nM compound, cell-free) was -10%. The IC50 in test [1] (setting [2]) came out at 10 µM.
Consider `C#Cc1cccc(Nc2nc3cc(-c4nnn[nH]4)ccc3c3sccc23)c1`, for which the inhibition at 0.5 µM at recombinant human PIM1 (500 nM compound, cell-free) is 64.6%. The results for the IC50 (on recombinant human PIM1 (cell-free); in test [1] (setting [4])) were 0.716 µM and more than 10 µM, respectively.
Consider `Cc1cc(CNC(=O)c2cccc(Nc3nc4cc(-c5nnn[nH]5)ccc4c4sccc34)c2)no1` [drawing 1508], for which the “PIM-1: % inh 500 nM” value at recombinant human PIM1 (500 nM compound, cell-free) is 55.402%. The IC50 is 0.581 µM at recombinant human PIM1 (cell-free) and more than 10 µM in test [1] (read-out: HCT-116 (uM), cell proliferation modulatory activity, HCT-116).
Consider `O=C(O)c1ccc2c(c1)nc(Nc1ccccc1O)c1ccsc12`, for which the inhibition at 0.5 µM on recombinant human PIM1 (500 nM compound, cell-free) is -3.12%. In test [1] (setting [2]), the IC50 was 10 µM.
For `Cc1cnc(CNC(=O)c2ccc3c(c2)nc(N2CCN(C)CC2)c2ccncc23)cn1`, the inhibition at 0.5 µM on recombinant human PIM1 (setting [6]) was -23.1%. Also, the IC50 in test [1] (setting [7]) was more than 10 µM.
With `CCCNC(=O)c1cccc(Nc2nc3cc(C(=O)O)ccc3c3sccc23)c1`, on recombinant human PIM1 (500 nM compound, cell-free), the inhibition at 0.5 µM is 13.3%. Also, the IC50 in test [1] (setting [4]) is more than 10 µM.
As to `CONC(=O)c1ccc2c(c1)nc(N1CCN(C)CC1)c1ccsc12`, the inhibition at 0.5 µM at recombinant human PIM1 (setting [6]) was -0.965%. Moreover, the IC50 in test [1] (setting [7]) was more than 10 µM.
Take `O=C(O)c1ccc2c(c1)nc(Nc1ccc(F)cc1F)c1ccsc12`: the inhibition at 0.5 µM on recombinant human PIM1 (500 nM compound, cell-free) came to 67.2%. In addition, the IC50 came out at 0.362 µM on recombinant human PIM1 (cell-free) and 10 µM in test [1] (setting [2]).
For the compound `O=C(O)c1ccc2c(c1)nc(N1CCCC1)c1ccsc12`, the inhibition at 0.5 µM on recombinant human PIM1 (500 nM compound, cell-free) was -16%. Moreover, in test [1] (setting [3]), the IC50 turned out to be 10 µM.
As to `COC(=O)c1ccc2c(c1)[nH]c(=O)c1ccncc12` [drawing 1390], on recombinant human PIM1 (500 nM compound, cell-free), the inhibition at 0.5 µM stood at 0.802%. Moreover, the IC50 in test [1] (setting [2]) is 10 µM.
For the compound `N#Cc1ccc2c(c1)nc(N1CCN(CCO)CC1)c1ccsc12`, the inhibition at 0.5 µM on recombinant human PIM1 (setting [6]) is -17.6%. For the same compound, the IC50 in test [1] (setting [7]) was determined as 9.38 µM.
Turning to `O=C(O)c1ccc2c(c1)nc(Nc1cccc(O)c1)c1ccsc12`, the inhibition at 0.5 µM on recombinant human PIM1 (500 nM compound, cell-free) was 6.5%. The IC50 in test [1] (setting [2]) was 10 µM.
Regarding `CN(C)C1CCN(c2nc3cc(C#N)ccc3c3sccc23)C1` (centres unmarked), the inhibition at 0.5 µM on recombinant human PIM1 (setting [6]) was -16.5%. Further, in test [1] (setting [7]), the IC50 was determined as 3.86 µM.
`Cc1cc(CNC(=O)c2cccc(Nc3nc4cc(-c5nnn[nH]5)ccc4c4sccc34)c2)no1` [drawing 1507]: the inhibition at 0.5 µM on recombinant human PIM1 (500 nM compound, cell-free) was 37.6%. Also, in test [1] (setting [4]), the IC50 was more than 10 µM.
Regarding `CN1CCN(c2nc3cc(C(=O)NC4CC4)ccc3c3sccc23)CC1`, the inhibition at 0.5 µM on recombinant human PIM1 (setting [6]) was -12.7%. For the same compound, in test [1] (setting [7]), the IC50 was more than 10 µM.
Turning to `NS(=O)(=O)c1cccc(Nc2nc3cc(C(=O)O)ccc3c3cnccc23)c1`, the inhibition at 0.5 µM at recombinant human PIM1 (setting [6]) turned out to be 83.4%. The values for the IC50 (at recombinant human PIM1 (cell-free assay); in test [1] (setting [7])) were 0.397 µM and more than 10 µM, respectively.
With `O=C(O)c1ccc2c(c1)nc(NC1CC1)c1ccsc12`, on recombinant human PIM1 (500 nM compound, cell-free), the inhibition at 0.5 µM is 37.4%. For the same compound, the IC50 in test [1] (setting [2]) turned out to be 10 µM.
As to `CN(C)CCNc1nc2cc(C#N)ccc2c2sccc12` [drawing 1429], at recombinant human PIM1 (500 nM compound, cell-free), the inhibition at 0.5 µM is -3.84%. For the same compound, the IC50 in test [1] (setting [3]) was 0.4 µM.
Turning to `CCc1cccc(Nc2nc3cc(C(=O)O)ccc3c3sccc23)c1`, at recombinant human PIM1 (500 nM compound, cell-free), the inhibition at 0.5 µM is 51.6%. For the same compound, the IC50 on recombinant human PIM1 (cell-free) is 0.814 µM; in test [1] (setting [4]), more than 10 µM.
On to `COC(=O)CNC(=O)c1cccc(Nc2nc3cc(-c4nnn[nH]4)ccc3c3sccc23)c1`, for which, at recombinant human PIM1 (500 nM compound, cell-free), the inhibition at 0.5 µM was determined as 48%. Also, the IC50 in test [1] (setting [4]) is more than 10 µM.
With `CCOc1ccc(Nc2nc3cc(-c4nnn[nH]4)ccc3c3sccc23)cc1`, the inhibition at 0.5 µM on recombinant human PIM1 (500 nM compound, cell-free) was 46.1%. The IC50 in test [1] (setting [5]) was more than 10 µM.
In the same order, the values of `c1ccc(CNc2nc3cc(-c4nnn[nH]4)ccc3c3sccc23)cc1` are -21.2% and more than 10 µM.
For the compound `COC(=O)c1ccc2c(c1)nc(Nc1ccccc1C)c1nc(SC)ncc12`, the inhibition at 0.5 µM at recombinant human PIM1 (setting [6]) was 12.5%. Further, in test [1] (setting [7]), the IC50 was more than 10 µM.
Regarding `NC(=O)c1ccc2c(c1)[nH]c(=O)c1ccncc12`, on recombinant human PIM1 (500 nM compound, cell-free), the inhibition at 0.5 µM amounted to 4.18%. Further, the IC50 in test [1] (setting [5]) was more than 10 µM.
With `Fc1ccc(Nc2nc3cc(-c4nnn[nH]4)ccc3c3sccc23)cc1Cl`, the inhibition at 0.5 µM at recombinant human PIM1 (500 nM compound, cell-free) came out at 67.4%. Moreover, the IC50 at recombinant human PIM1 (cell-free) came to 0.702 µM; in test [1] (setting [2]), 10 µM.
Turning to `CN1CCN(c2nc3cc(C(=O)NCc4ccncc4)ccc3c3sccc23)CC1`, the inhibition at 0.5 µM on recombinant human PIM1 (setting [6]) was -14.1%. For the same compound, the IC50 in test [1] (setting [7]) is more than 10 µM.
For `Cc1cc(Nc2ncc3c(n2)c(Nc2ccc(F)c(Cl)c2)nc2cc(C(=O)O)ccc23)[nH]n1` [drawing 1635], on recombinant human PIM1 (setting [6]), the inhibition at 0.5 µM turned out to be 66.1%. The IC50 in test [1] (setting [8]) was more than 10 µM.

(Values after patent US8168651B2, “Protein kinase modulators” (Cylene Pharmaceuticals, Inc., priority 2008, dated 2012).)
